In PubChem BioAssay (NCI):
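96-well plates; 48 h exposure; 5 concentrations. Endpoints by linear interpolation between flanking doses. Not reached: highest tested concentration assigned. TGI is the concentration that stops growth completely.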

How the values were obtained:
Test in all cases: NCI tumour cell line growth inhibition, 48 h
HOP-18 NSCLC = tested on: HOP-18 NSCLC
DMS 114 small cell lung = tested on: DMS 114 small cell lung
DMS 273 small cell lung = tested on: DMS 273 small cell lung
LXFL 529 NSCLC = tested on: LXFL 529 NSCLC
DLD-1 colon = tested on: DLD-1 colon
SNB-78 CNS = tested on: SNB-78 CNS
RXF-631 renal = tested on: RXF-631 renal
M19-MEL melanoma = tested on: M19-MEL melanoma
P388 leukemia = tested on: P388 leukemia
SN12K1 renal = tested on: SN12K1 renal
P388/ADR leukemia = tested on: P388/ADR leukemia

For `NCc1cccc(O)c1O`, the TGI (HOP-18 NSCLC) was > 100 µM, the TGI (DMS 114 small cell lung) was > 100 µM and the TGI (DMS 273 small cell lung) was > 100 µM. For the same molecule, the TGI (LXFL 529 NSCLC) was > 100 µM, the TGI (DLD-1 colon) was > 100 µM and the TGI (SNB-78 CNS) was > 100 µM. The TGI (RXF-631 renal) was > 100 µM and the TGI (M19-MEL melanoma) was > 100 µM.
Molecule `CN(C)CCCNc1ccc2nnn3c4ccc(O)cc4c(=O)c1c23` has a TGI (HOP-18 NSCLC) of 29.1 µM, a TGI (DMS 114 small cell lung) of 23.1 µM and a TGI (LXFL 529 NSCLC) of 20.1 µM. It also gave a TGI (DLD-1 colon) of 18.1 µM, a TGI (SNB-78 CNS) of 20.7 µM and a TGI (M19-MEL melanoma) of 25.6 µM.
`CN=C(/N=c1\ssc(=NC)n1C)N(C)C` was tested, and the TGI (HOP-18 NSCLC) was > 100 µM, the TGI (DMS 114 small cell lung) was > 100 µM and the TGI (DMS 273 small cell lung) was > 100 µM. The TGI (LXFL 529 NSCLC) was > 100 µM, the TGI (DLD-1 colon) was > 100 µM and the TGI (RXF-631 renal) was > 100 µM. For the same molecule, the TGI (M19-MEL melanoma) was > 100 µM.
`COc1cccc(N[C@@H]2c3cc4c(cc3C(c3cc(OC)c(O)c(OC)c3)[C@H]3C(=O)OCC32)OCO4)c1` (stereo partly specified) showed a TGI (HOP-18 NSCLC) of 21.7 µM, a TGI (P388 leukemia) of 0.385 µM and a TGI (DMS 114 small cell lung) of 4.77 µM. For the same molecule, the TGI (SN12K1 renal) was 9.55 µM, the TGI (DMS 273 small cell lung) was 2.44 µM and the TGI (DLD-1 colon) was 8.35 µM. For the same molecule, the TGI (SNB-78 CNS) was > 100 µM, the TGI (P388/ADR leukemia) was 0.984 µM and the TGI (M19-MEL melanoma) was > 59.7 µM.
With `CC1=C2C(=CO[C@H](C)[C@H]2C)C(=O)C(C(=O)O)=C1O` the TGI (HOP-18 NSCLC) was 57.9 µM, the TGI (P388 leukemia) was 500 µM and the TGI (DMS 114 small cell lung) was 30 µM. It also gave a TGI (SN12K1 renal) of 42 µM, a TGI (DMS 273 small cell lung) of 123 µM and a TGI (DLD-1 colon) of 66.9 µM. It also gave a TGI (SNB-78 CNS) of 82.8 µM, a TGI (P388/ADR leukemia) of 67.7 µM and a TGI (M19-MEL melanoma) of 79.1 µM.
In the case of `O=C1c2c(O)cccc2-c2nn(CCNCCO)c3ccc(NCCNCCO)c1c23`, the TGI (HOP-18 NSCLC) is reported as 5.41 µM, the TGI (DMS 114 small cell lung) is reported as 0.178 µM and the TGI (DMS 273 small cell lung) is reported as 2.54 µM. For the same molecule, the TGI (LXFL 529 NSCLC) was 1.14 µM, the TGI (DLD-1 colon) was > 41.3 µM and the TGI (SNB-78 CNS) was 5.99 µM. For the same molecule, the TGI (RXF-631 renal) was 5.54 µM and the TGI (M19-MEL melanoma) was 1.15 µM.
With `CC1(C)CC2(CC(C)(C)N1O)NC(=O)OC2=O` the TGI (HOP-18 NSCLC) was > 100 µM, the TGI (P388 leukemia) was > 100 µM and the TGI (DMS 114 small cell lung) was > 100 µM. The TGI (SN12K1 renal) was > 100 µM, the TGI (DMS 273 small cell lung) was > 100 µM and the TGI (DLD-1 colon) was > 100 µM. The TGI (SNB-78 CNS) was > 100 µM, the TGI (P388/ADR leukemia) was > 100 µM and the TGI (M19-MEL melanoma) was > 100 µM.
